Values of other authors, collected in patent US6482908B1, “Template-directed ring-closing metathesis and ring-opening metathesis polymerization of functionalized dienes” (California Institute of Technology, priority 1997, dated 2002).

System: cell attachment and spreading

## Gly-Arg-Gly-Asp-Tyr (GRGDY; printed: Gly-Arg-Gly-Asp-Tyr) [oligopeptide immobilized onto glass substrate, literature adhesion agent]
Immobilized onto a poorly adhesive glass substrate
  cell adhesion activity of immobilized peptide: extremely potent adhesion agent
Peptide immobilized onto poorly adhesive glass substrate, ~140 nm between peptides
  minimum surface density necessary to induce normal cell attachment and spreading: 10 fmol/cm^2
